Measured values: PubChem BioAssay AID256 (DTP/NCI, 2004)
Inconclusive results and toxic doses are left out. The calls were made as follows: active = survival T/C of 150% or more; inactive = T/C below 125% in these data.

Tested on: CD2F1 mice, L1210 leukemia ip, survival T/C
Experiment: NCI In Vivo Anticancer Drug Screen. Data for tumor model L1210 Leukemia (intraperitoneal) in CD2F1 (CDF1) mice
Settings: endpoint: mean survival time, higher = longer survival
Procedure, shortened: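 Antitumor effect is scored in animals hosting a serially transplanted tumor. Values compare compound-dosed animals against vehicle-only controls as a simple quotient.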

[1] = dose: 100.0 mg/kg/injection, schedule: Q04DX003 (ip), vehicle: saline
[2] = dose: 200.0 mg/kg/injection, schedule: Q04DX003 (ip), vehicle: saline
[3] = dose: 400.0 mg/kg/injection, schedule: Q04DX003 (ip), vehicle: saline

Measured: T/C

NC1CONC1=O (configuration not stated)
inactive: [1] 94 % of control | [2] 97 % of control | [3] 96 % of control

Cc1cccc(Cl)c1NC(=O)/C=C/c1ccccc1
inactive: dose: 100.0 mg/kg/injection, schedule: Q04DX002 (ip), vehicle: saline with Tween-80 87 % of control | dose: 200.0 mg/kg/injection, schedule: Q04DX002 (ip), vehicle: saline with Tween-80 94 % of control | dose: 400.0 mg/kg/injection, schedule: Q04DX002 (ip), vehicle: saline with Tween-80 105 % of control

CC(C)=NO
inactive: dose: 100.0 mg/kg/injection, schedule: Q04DX003 (ip), vehicle: saline with Tween-80 109 % of control | dose: 200.0 mg/kg/injection, schedule: Q04DX003 (ip), vehicle: saline with Tween-80 90 % of control

OC1CNCc2cc3c(cc21)OCO3 (configuration not stated)
inactive: dose: 100.0 mg/kg/injection, schedule: Q01DX001 (ip), vehicle: saline 107 % of control | dose: 200.0 mg/kg/injection, schedule: Q01DX001 (ip), vehicle: saline 104 % of control

CN(C)/N=N\c1ncn(C2OC(CO)C(O)C2O)c1C(N)=O (configuration not stated)
inactive: dose: 100.0 mg/kg/injection, schedule: Q01DX005 (ip), vehicle: saline 123 % of control

O=[N+]([O-])c1ccccc1O
inactive: dose: 100.0 mg/kg/injection, schedule: Q04DX003 (ip), vehicle: Klucel (hydroxypropylcellulose) (HPC) 97 % of control | dose: 200.0 mg/kg/injection, schedule: Q04DX003 (ip), vehicle: Klucel (hydroxypropylcellulose) (HPC) 97 % of control | dose: 400.0 mg/kg/injection, schedule: Q04DX003 (ip), vehicle: Klucel (hydroxypropylcellulose) (HPC) 96 % of control

CCCCOC(=O)c1ccc(NC(=O)Nc2ccccc2)cc1
inactive: dose: 25.0 mg/kg/injection, schedule: Q01DX009 (ip), vehicle: saline with Tween-80 92 % of control | dose: 50.0 mg/kg/injection, schedule: Q01DX009 (ip), vehicle: saline with Tween-80 97 % of control | dose: 100.0 mg/kg/injection, schedule: Q01DX009 (ip), vehicle: saline with Tween-80 93 % of control

N=c1ncn(C2OC(COP(=O)(O)O)C(O)C2O)c2nc[nH]c12 (configuration not stated)
inactive: dose: 0.78 mg/kg/injection, schedule: Q01DX005 (ip), vehicle: water 102 % of control | dose: 1.56 mg/kg/injection, schedule: Q01DX005 (ip), vehicle: water 110 % of control | dose: 3.13 mg/kg/injection, schedule: Q01DX005 (ip), vehicle: water 105 % of control | dose: 6.25 mg/kg/injection, schedule: Q01DX005 (ip), vehicle: water 111 % of control | dose: 11.3 mg/kg/injection, schedule: Q01DX005 (ip), vehicle: water 98 % of control | dose: 12.5 mg/kg/injection, schedule: Q01DX005 (ip), vehicle: water 102 % of control | dose: 22.5 mg/kg/injection, schedule: Q01DX005 (ip), vehicle: water 98 % of control | dose: 45.0 mg/kg/injection, schedule: Q01DX005 (ip), vehicle: water 102 % of control

C=C(C)C1CCC2(C(=O)OC)CCC3(C)C(CCC4C5(C)CCC(OC6CCCCO6)C(C)(C)C5CCC43C)C12 (configuration not stated)
inactive: dose: 6.25 mg/kg/injection, schedule: Q04DX002 (ip), vehicle: saline with Tween-80 103 % of control | dose: 12.5 mg/kg/injection, schedule: Q04DX002 (ip), vehicle: saline with Tween-80 95 % of control | dose: 25.0 mg/kg/injection, schedule: Q04DX002 (ip), vehicle: saline with Tween-80 86 % of control

CC(=N\[O-])/C(C)=N/O.CC(=N\[O-])/C(C)=N/O.CC(=O)[O-].CC(=O)[O-].O.[Rh+2].[Rh+2]
inactive: dose: 0.78 mg/kg/injection, schedule: Q01DX009 (ip), vehicle: saline 88 % of control | dose: 3.13 mg/kg/injection, schedule: Q01DX009 (ip), vehicle: saline 96 % of control | dose: 6.25 mg/kg/injection, schedule: Q01DX009 (ip), vehicle: saline 91 % of control | dose: 12.5 mg/kg/injection, schedule: Q01DX009 (ip), vehicle: Klucel (hydroxypropylcellulose) (HPC) 95 % of control | dose: 12.5 mg/kg/injection, schedule: Q01DX009 (ip), vehicle: saline 93 % of control

CC1CCCC/C1=N/O (configuration not stated)
inactive: [1] 101 % of control | [2] 101 % of control | [3] 101 % of control

COS(=O)(=O)CC(O)(c1ccccc1)c1ccccc1
inactive: dose: 75.0 mg/kg/injection, schedule: Q01DX009 (ip), vehicle: saline 102 % of control | dose: 75.0 mg/kg/injection, schedule: Q04DX003 (ip), vehicle: saline 97 % of control | dose: 150.0 mg/kg/injection, schedule: Q01DX009 (ip), vehicle: saline 100 % of control | dose: 150.0 mg/kg/injection, schedule: Q04DX003 (ip), vehicle: saline 95 % of control | dose: 300.0 mg/kg/injection, schedule: Q01DX009 (ip), vehicle: saline 100 % of control | dose: 300.0 mg/kg/injection, schedule: Q04DX003 (ip), vehicle: saline 95 % of control
